Source: publication PMC8636556, “Cloning, expression, purification and characterization of chitin deacetylase extremozyme from halophilic Bacillus aryabhattai B8W22” (3 Biotech, 2021)

Biological target: T1, BaCDA (Priestia aryabhattai, UniProt A0A7W3NGR0)
T1 construct: gene HNP21_005748
Experiment: biochemical
Settings: read-out: Relative activity (%) / Ethylene glycol chitin

T1 sequence (A0A7W3NGR0 1-254): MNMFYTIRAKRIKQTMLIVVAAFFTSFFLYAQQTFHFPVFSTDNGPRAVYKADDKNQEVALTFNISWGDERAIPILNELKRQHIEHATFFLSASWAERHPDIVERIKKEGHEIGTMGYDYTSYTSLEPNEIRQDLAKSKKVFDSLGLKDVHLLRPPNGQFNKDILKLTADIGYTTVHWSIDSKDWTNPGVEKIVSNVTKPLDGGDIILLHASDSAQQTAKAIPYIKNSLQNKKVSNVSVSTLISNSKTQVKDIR

CC(=O)O [acetate] was tested, and the activity at 10000 µM was 49.9 ± 3.89%.
